In US20200024246A1, “POGOSTONE DERIVATIVES AND METHODS OF USING THE SAME” (Hamyard Associates LLC, priority 2018, published 2020):
Entries after “also recorded” stand apart in the source; their conditions may differ.

Columns and labels:
[1] = system: 3-4 instar Aedes aegypti larvae; assay: Mosquito larvicide bioassay; type: in vivo
Procedure: Mosquito larvicide bioassays were performed by introducing various concentrations of test compounds (pyrone derivatives and rotenone) into acetone at various concentrations. 200 uL of these solutions were added to individual cups containing 10, 3-4 instar Aedes aegypti larvae and 25 mL of DI water. 2 mg of Tetramin™ was provided to each cup as a food source. […] Ataxia was used as the indicator of larval mortality. At least 5 concentrations were used which caused between 10 and 90% mortality. LC50 values were calculated using a PROC PROBIT model in SAS 9.4.

[2] = system: house flies; assay: Spray-cup testing, house flies (FIG. 3a); type: in vivo, house fly; conditions: Formula 13 2.5% w/v in water vs thymol 2.5% or 10% w/v
Procedure: 10 adults of various arthropod species used for this characterization were placed into 8 oz. ice cream cups with tulle placed over the top to prevent the escape of arthropods from the container. Test formulations were added to spray bottles ([…]™) and applied at the same distance and spray number to eliminate variation between manufacturer spray bottles. For all experiments, spray bottles were set to mist in order to prevent excess formulation from accumulating in the cups. […] Mortality was recorded at 1 min, 5 min, 10 min, 15 min, 30 min, 4 hours, and 8 hours for each replicate. A minimum of 3 replicates of 10 arthropods/cup/replicate were performed for each formulation. Data was modeled using a logarithmic regression to show the speed-to-kill of each formulation and highlight differences among treatment groups. Different spray amounts were used for each arthropod, depending on susceptibility, e.g.:
House flies=8 sprays, 3 in […]

[3] = system: soybean aphids; assay: Leaf spray/dip test, soybean aphids (FIG. 4a); type: in vivo, soybean aphid; conditions: soybean aphids on dipped soybean leaves, 48 hours
Procedure: (§1) Soybean leaves were removed from a previously uninfested plant and dipped in solution containing water, various concentrations of compounds to be screened, and 0.5% industrial emulsifier. Leaves were allowed to air dry for 30 minutes before the beginning of the assay to assure excess formulation was not present on the treated leaves. Ten two-spotted spider mites or ten soybean aphid adults were gently placed on the top surface of the treated leaves. A minimum of three replicates were performed for each formulation tested in this experiment. Mortality of aphids or spider mites was recorded at 48 hours after their introduction to treated leaves. All treatments were compared to a water+emulsifier control and a thymol+emulsifier control. Data was presented as the average mortality across all replicates along with the standard error of the mean.

[4] = system: two-spotted spider mites; assay: Leaf spray/dip test, spider mites (FIG. 4b); type: in vivo, two-spotted spider mite; conditions: spider mites on dipped soybean leaves, 48 hours
Procedure: as §1

[5] = system: adult female Aedes aegypti; assay: Topical combination of Formula 13 with synthetic insecticides (FIGS. 6-9); type: in vivo
Procedure: A low-dose concentration of Formula 13 (500 μg/mL) was applied in combination with chlorfenapyr (75 μg/mL), dibrom (10 μg/mL), thiamethoxam (100 μg/mL), and permethrin (2.5 μg/mL) to the pronotum of adult female Aedes aegypti in 0.2 μL of acetone. These concentrations were chosen as they produced little-to-no mortality at 24 hours after application. Knockdown (immobilization) was recorded at 1 hour after application and mortality was recorded at 24, 48, and 72 hours after initial application. These applications were run in parallel to a topical application of a combined mixture of 500 μg/mL Formula 13 and 75 μg/mL of chlorfenpayr to the pronotum of adult female mosquitoes. For this experiment, total of 25 mosquitoes were treated within each replicate, with a minimum of 3 replicates utilized for each treatment. Synergism was defined as the higher percentage mortality in the insecticidal combination of both Formula 13 and chlorfenapyr compared to each individual component applied by itself.

[6] = system: adult female Aedes aegypti mosquitoes; assay: Formula 13 after pre-treatment with detoxification enzyme inhibitors (FIG. 10); type: in vivo
Procedure: Combinations of 2000 μg/mL Formula 13 and various detoxification enzyme inhibitors were applied to adult female mosquitoes in a volume of 0.2 μL to identify which detoxification pathway was most responsible for clearance of bioactive pogostone from the insect. A dose of 0.2 uL of either 1000 μg/mL of S,S,S-tributyl phosphorotrithioate (DEF) or 5000 μg/mL piperonyl butoxide (PBO) or 5000 μg/mL diethyl maleate (DEM) was applied 4 hours before a dose of 0.2 uL 2000 μg/mL of Formula 13 was applied to adult Aedes aegypti. […] The concentrations of inhibitors were chosen due to their inability to cause toxicity on their own at this application rate. The concentration of Formula 13 was chosen as the approximate LD25 of this compound against adult female Aedes aegypti mosquitoes. Combinations that caused statistically higher levels of mortality than pyrone 7 applied alone were considered informative. The goal of this exploration was to determine which processes might be most valuable in the detoxification of these derivatives.

[7] = system: adult female mosquitoes; assay: whole plant or invertebrate; conditions: topical
Procedure: The first group of DHAA-based derivatives that were tested included Formula A2, Formula B3, Formula C3, and Formula D3. A solution of 0.5% or 1.5% of each of these compounds was applied to the mosquitoes, as described above. […] Acetone was used as a control.

[8] = system: two-spotted spider mites, soybean aphids, maize weevils, German cockroaches, and European corn borers; assay: Screen of Formula 13 against other arthropod pest species; type: in vivo; conditions: words

With `CC(C)CCC(=O)c1c(O)c2ccccc2oc1=O` [Formula 13] the LC50 ([1]; Aedes aegypti, larval mortality at 24 hours, in 25 mL DI water, read-out: LC50) was 1.34 µg/mL, the “larvicidal properties compared with natural pogostone or rotenone” value ([1]; words) was “possessed better larvicidal properties than natural pogostone; also recorded: possessed better larvicidal properties than rotenone; also recorded: performed as well as the rotenone” and the “efficacy (mortality) compared with thymol” value [2] was “outperformed thymol at all time points; also recorded: surpassed the efficacy of thymol at both an equal or higher concentration”. For the same molecule, the “mortality compared with thymol or control” value [3] was “performed better than thymol; also recorded: significantly more effective at killing soybean aphids compared to thymol or a control”, the “mortality compared with thymol or control” value [4] was “performed better than thymol” and the mortality at 500 µg/mL ([5]; Aedes aegypti, 24 h, read-out: 24-hr percentage mortality) was 11.2%. For the same molecule, the “percentage mortality at 24 hour” value ([5]; chlorfenapyr 75 ug/mL, Formula 13 500 ug/mL, alone or combined, words) was “very low mortality”, the “toxicity of Formula 13 after DEF (inhibition of esterases)” value ([6]; 1000 μg/mL DEF 4 hours before 2000 μg/mL Formula 13, 0.2 uL each) was “significantly increased the toxicity of Formula 13” and the “toxicity of Formula 13 after DEM (decreasing glutathione S-transferase activity)” value ([6]; 5000 μg/mL DEM 4 hours before 2000 μg/mL Formula 13, 0.2 uL each) was “second-most important enzyme system”. For the same molecule, the “toxicity of Formula 13 after PBO (inhibition of monooxygenases)” value ([6]; 5000 μg/mL PBO 4 hours before 2000 μg/mL Formula 13, 0.2 uL each) was “most significant for increasing the toxicity of Formula 13”, the “approximate LD25 (concentration applied)” value ([6]; 0.2 uL applied topically to adult female Aedes aegypti) was roughly 2000 µg/mL and the “1-hour Knockdown EC50 (μg/g mosquito)” value ([7]; mosquito, 1 hour) was 182 μg/g mosquito. For the same molecule, the LD50 ([7]; 24 h, read-out: 24-hour Mortality LD50 (μg/g mosquito)) was 119 mg/kg and the “toxicity compared with thymol” value [8] was “more toxic than a commonly used natural insecticide, thymol”.
